Measured values from patent publication US20140171358A1, “ANTIMICROBIAL COMPOSITIONS COMPRISING DGLA AND NEOMYCIN SULFATE AND METHODS OF USE THEREOF” (Dignity Sciences Limited, priority 2012, published 2014).

What was measured:
Assay type in all cases: cell-based
P. acnes = assay: agar dilution method: growth index and MIC on P. acnes (single compounds and combinations)
Experimental: Several compounds including fatty acids such as DGLA, 15-OHEPA, and 15-HETrE were tested to determine their capacity to inhibit the growth of P. acnes. In an exemplary method, an agar dilution method was used to determine the minimum inhibitory concentration (MIC) of each tested compound. Briefly, the agar dilution method involved preparing a series of concentrations of each compound (e.g., nicotinamide, benzoyl peroxide, adapalene, metronidazole, DGLA, 15-OHEPA, and 15-HETrE) in a Reinforced Clostridial Agar (RCA) media that facilitates growth of P. acnes under anaerobic conditions. An inoculum of P. acnes was prepared by incubation of P. acnes for approximately seven days at 35-37° C. to achieve a ≧1.0 OD600 inoculum of P. acnes in RCM broth. A portion of this inoculum was then added to the surface of each plate as a 10 μL spot and incubated at 35-37° C. for 72 hours or more. Growth of P. acnes was then observed and compared to control plates in which no compound has been added, and positive inhibition plates prepared with erythromycin. […] The growth of P. acnes in the presence of nicotinamide, benzoyl peroxide, adapalene, metronidazole, DGLA, 15-OHEPA, and 15-HETrE was determined with varying concentrations of the compound (see, Table 2). Next, the MIC was determined as the concentration at which a marked reduction (+) occurs in the appearance of growth on the test plate (as per Clinical and Laboratory Standards Institute M11-A7). The compounds tested singly in Example 1 were tested in combination with one another to determine the capacity of the combination to inhibit the growth of P. acnes. In an exemplary method, the MIC was determined for each of the combination as described in Example 1. Briefly, test combinations included DGLA with nicotinamide, benzoyl peroxide, adapalene, or metronidazole; 15-HETrE with nicotinamide, benzoyl peroxide, adapalene, or metronidazole; and 15-OHEPA with nicotinamide, benzoyl peroxide, adapalene, or metronidazole. The tables below show the growth of P. acnes in the presence of 0.4 or 1.0 mg/mL DGLA with varying concentrations of nicotinamide, benzoyl peroxide, adapalene, or metronidazole (Table 3); the growth of P. acnes in the presence of 0.01 or 0.05 mg/mL 15-HETrE with varying concentrations of nicotinamide, benzoyl peroxide, adapalene, or metronidazole (Table 5); and the growth of P. acnes in the presence of 0.5 or 0.1 mg/mL 15-OHEPA with varying concentrations of nicotinamide, benzoyl peroxide, adapalene, or metronidazole (Table 7).

A. brasiliensis = assay: paper disc corrected zone of inhibition (CZOI) on Mueller Hinton agar
Experimental: (§1) The compounds tested in Example 1 were tested to determine their capacity to inhibit the growth of a variety of Gram-negative bacteria, Gram-positive bactgeria, fungi and yeast. In an exemplary method, Mueller Hinton agar plates were streaked with 500 μL of a 10^5 colony-forming units/mL culture and allowed to dry for at least one minute. A sterile paper disc (6 mm diameter) was then placed in the middle of each plate using sterile forceps. Twenty microliters of a solution of a known concentration of a test compound in filter-sterilized 95% ethanol were pipetted onto each test plate. Two streaked plates served as positive inhibitory controls and contained 6 mm sterile paper discs with standard tetracycline solutions. Two additional plates served as negative inhibition controls and each contained 6 mm sterile paper discs with 20 μL of filter-sterilized 95% ethanol. Two more plates served as positive growth controls and contained no paper disc or added antibacterial agent. The plates were incubated at 32.5±2° C. for 24±4 hours, after which the corrected zone of inhibition (“CZOI”) was determined as follows: For each plate, the length Y2 and width X2 of the test sample (paper disc) and length Y1 and width X1 of the clear zone were measured (FIG. 1). The CZOI was calculated from these values as shown by the equation below: [formula]

C. albicans = assay: as above
Experimental: as §1

C. striatum = assay: as above
Experimental: as §1

E. coli = assay: as above
Experimental: as §1

E. faecalis = assay: as above
Experimental: as §1

K. pneumoniae = assay: as above
Experimental: as §1

P. aeroginosa = assay: as above
Experimental: as §1

S. aureus = assay: as above
Experimental: as §1

S. epidermidis = assay: as above
Experimental: as §1

Question: `CCC=CCC(O)C=CC=CCC=CCC=CCCCC(=O)O` (centres unmarked) [15-OHEPA, 15-Hydroxy-eicosa-5,8,11,13,17-pentaenoic acid] was tested. Which “effect on growth of P. acnes on its own” value (P. acnes; 0.05 mg/mL) did it give?
Answer: Its value is “no effect on its own”.

Question: And the MIC (P. acnes; Cutibacterium acnes, compound alone, read-out: MIC (mg/mL) as per P-11-0007 or P-11-0008 Addendum A)?
Answer: Its MIC is 0.05 to 0.075 mg/mL.

Question: What about the “Average CZOI” value (A. brasiliensis; 0.01 mg/mL) of the same compound?
Answer: Its value is 0.25 mm.

Question: And the “Average CZOI” value (A. brasiliensis; 0.025 mg/mL)?
Answer: Its value is 1.75 mm.

Question: And the “Average CZOI” value (A. brasiliensis; 0.05 mg/mL)?
Answer: The value was 2 mm.

Question: What about the “Average CZOI” value (A. brasiliensis; 0.075 mg/mL) of the same compound?
Answer: Its value is 3.75 mm.

Question: And the “Average CZOI” value (A. brasiliensis; 0.1 mg/mL)?
Answer: The value was 2.75 mm.

Question: And the “Lowest Concentration With Observed Inhibition” value (A. brasiliensis; A. brasiliensis)?
Answer: The value was 0.001 mg/mL.

Question: And the “Most Effective Concentration Observed” value (A. brasiliensis; A. brasiliensis)?
Answer: Its value is 0.075 mg/mL.

Question: And the “Average CZOI” value (C. albicans; 0.01 mg/mL)?
Answer: Its value is 1 mm.

Question: And the “Average CZOI” value (C. albicans; 0.025 mg/mL)?
Answer: The value was 1.5 mm.

Question: What about the “Average CZOI” value (C. albicans; 0.05 mg/mL) of the same compound?
Answer: The value was 2.5 mm.

Question: And the “Average CZOI” value (C. albicans; 0.075 mg/mL)?
Answer: The value was 2.25 mm.

Question: What about the “Average CZOI” value (C. albicans; 0.1 mg/mL) of the same compound?
Answer: The value was 1 mm.

Question: And the “Lowest Concentration With Observed Inhibition” value (C. albicans; C. albicans)?
Answer: The value was 0.001 mg/mL.

Question: And the “Most Effective Concentration Observed” value (C. albicans; C. albicans)?
Answer: The value was 0.05 mg/mL.

Question: And the “Average CZOI” value (C. striatum; 0.01 mg/mL)?
Answer: The value was 3.25 mm.

Question: What about the “Average CZOI” value (C. striatum; 0.025 mg/mL) of the same compound?
Answer: Its value is 3 mm.

Question: And the “Average CZOI” value (C. striatum; 0.05 mg/mL)?
Answer: The value was 3.5 mm.

Question: And the “Average CZOI” value (C. striatum; 0.075 mg/mL)?
Answer: Its value is 2 mm.

Question: What about the “Average CZOI” value (C. striatum; 0.1 mg/mL) of the same compound?
Answer: The value was 1.5 mm.

Question: What about the “Lowest Concentration With Observed Inhibition” value (C. striatum; C. striatum) of the same compound?
Answer: The value was 0.001 mg/mL.

Question: And the “Most Effective Concentration Observed” value (C. striatum; C. striatum)?
Answer: The value was 0.05 mg/mL.

Question: And the “Average CZOI” value (E. coli; 0.01 mg/mL)?
Answer: The value was 2 mm.

Question: What about the “Average CZOI” value (E. coli; 0.025 mg/mL) of the same compound?
Answer: Its value is 1.25 mm.

Question: And the “Average CZOI” value (E. coli; 0.05 mg/mL)?
Answer: The value was 1.25 mm.

Question: What about the “Average CZOI” value (E. coli; 0.075 mg/mL) of the same compound?
Answer: The value was 1.75 mm.

Question: What about the “Average CZOI” value (E. coli; 0.1 mg/mL) of the same compound?
Answer: Its value is 1.5 mm.

Question: And the “Lowest Concentration With Observed Inhibition” value (E. coli; E. coli)?
Answer: The value was 0.001 mg/mL.

Question: And the “Most Effective Concentration Observed” value (E. coli; E. coli)?
Answer: The value was 0.001 mg/mL.

Question: What about the “Average CZOI” value (E. faecalis; 0.01 mg/mL) of the same compound?
Answer: Its value is 2.5 mm.

Question: And the “Average CZOI” value (E. faecalis; 0.025 mg/mL)?
Answer: Its value is 1.5 mm.

Question: And the “Average CZOI” value (E. faecalis; 0.05 mg/mL)?
Answer: Its value is 2.25 mm.

Question: What about the “Average CZOI” value (E. faecalis; 0.075 mg/mL) of the same compound?
Answer: Its value is 1.25 mm.

Question: What about the “Average CZOI” value (E. faecalis; 0.1 mg/mL) of the same compound?
Answer: Its value is 1.5 mm.

Question: And the “Lowest Concentration With Observed Inhibition” value (E. faecalis; E. faecalis)?
Answer: The value was 0.001 mg/mL.

Question: What about the “Most Effective Concentration Observed” value (E. faecalis; E. faecalis) of the same compound?
Answer: Its value is 0.001 mg/mL.

Question: And the “Average CZOI” value (K. pneumoniae; 0.01 mg/mL)?
Answer: The value was 2.25 mm.

Question: What about the “Average CZOI” value (K. pneumoniae; 0.025 mg/mL) of the same compound?
Answer: The value was 1.5 mm.

Question: And the “Average CZOI” value (K. pneumoniae; 0.05 mg/mL)?
Answer: Its value is 1 mm.

Question: What about the “Average CZOI” value (K. pneumoniae; 0.075 mg/mL) of the same compound?
Answer: The value was 1.75 mm.

Question: What about the “Average CZOI” value (K. pneumoniae; 0.1 mg/mL) of the same compound?
Answer: Its value is 2.25 mm.

Question: What about the “Lowest Concentration With Observed Inhibition” value (K. pneumoniae; K. pneumoniae) of the same compound?
Answer: The value was 0.001 mg/mL.

Question: And the “Most Effective Concentration Observed” value (K. pneumoniae; K. pneumoniae)?
Answer: Its value is 0.001 mg/mL.

Question: And the “Average CZOI” value (P. aeroginosa; 0.01 mg/mL)?
Answer: Its value is 1.25 mm.

Question: What about the “Average CZOI” value (P. aeroginosa; 0.025 mg/mL) of the same compound?
Answer: The value was 1 mm.

Question: And the “Average CZOI” value (P. aeroginosa; 0.05 mg/mL)?
Answer: Its value is 1.5 mm.

Question: And the “Average CZOI” value (P. aeroginosa; 0.075 mg/mL)?
Answer: The value was 1.75 mm.

Question: And the “Average CZOI” value (P. aeroginosa; 0.1 mg/mL)?
Answer: Its value is 1.5 mm.

Question: And the “Lowest Concentration With Observed Inhibition” value (P. aeroginosa; P. aeroginosa)?
Answer: Its value is 0.001 mg/mL.

Question: And the “Most Effective Concentration Observed” value (P. aeroginosa; P. aeroginosa)?
Answer: The value was 0.075 mg/mL.

Question: What about the “Average CZOI” value (S. aureus; 0.01 mg/mL) of the same compound?
Answer: Its value is 0 mm.

Question: And the “Average CZOI” value (S. aureus; 0.025 mg/mL)?
Answer: The value was 1 mm.

Question: And the “Average CZOI” value (S. aureus; 0.05 mg/mL)?
Answer: The value was 1.25 mm.

Question: What about the “Average CZOI” value (S. aureus; 0.075 mg/mL) of the same compound?
Answer: The value was 2.25 mm.

Question: What about the “Average CZOI” value (S. aureus; 0.1 mg/mL) of the same compound?
Answer: Its value is 2 mm.

Question: What about the “Lowest Concentration With Observed Inhibition” value (S. aureus; S. aureus) of the same compound?
Answer: Its value is 0.025 mg/mL.

Question: And the “Most Effective Concentration Observed” value (S. aureus; S. aureus)?
Answer: Its value is 0.075 mg/mL.

Question: What about the “Average CZOI” value (S. epidermidis; 0.01 mg/mL) of the same compound?
Answer: The value was 1 mm.

Question: What about the “Average CZOI” value (S. epidermidis; 0.025 mg/mL) of the same compound?
Answer: The value was 2 mm.

Question: What about the “Average CZOI” value (S. epidermidis; 0.05 mg/mL) of the same compound?
Answer: Its value is 2.25 mm.

Question: And the “Average CZOI” value (S. epidermidis; 0.075 mg/mL)?
Answer: The value was 3 mm.

Question: What about the “Average CZOI” value (S. epidermidis; 0.1 mg/mL) of the same compound?
Answer: Its value is 1.25 mm.

Question: And the “Lowest Concentration With Observed Inhibition” value (S. epidermidis; S. epidermidis)?
Answer: Its value is 0.001 mg/mL.

Question: And the “Most Effective Concentration Observed” value (S. epidermidis; S. epidermidis)?
Answer: Its value is 0.075 mg/mL.
